Source: PMC314469, “Protein Interaction Networks by Proteome Peptide Scanning” (PLoS Biology, 2004)

Tested on: Myo5 SH3 domain
Experiment: SPOT analysis of cellulose-bound peptides (WISE), Myo5 SH3 domain (Dataset S4)
Format: binding, Saccharomyces cerevisiae
Conditions: for The normalized value in BLU units: Myo5 SH3 domain
[1] = SPOT analysis of membrane-synthesized peptides probed with Myo5 SH3 domain, normalized value
[2] = SPOT analysis of cellulose-bound peptides probed with Myo5 SH3 domain, normalized value
[3] = SPOT analysis of membrane-bound peptides, normalized value (see methods)
[4] = SPOT analysis of cellulose-bound 14-mer yeast proteome peptides, normalized value, mean where the peptide was synthesized more than once

PQTMRQAPKRPDAD
The normalized value in BLU units (SPOT analysis, Myo5 SH3) [1]: 3257.1 BLU

SPSTHAAPVTPIIS
The normalized value in BLU units (SPOT analysis, Myo5 SH3) [2]: 53.3 BLU

DILKKESPDVPLFD
The normalized value in BLU units (SPOT analysis, Myo5 SH3) [1]: 146.1 BLU

GFDGYMQPIIPGKT
The normalized value in BLU units (SPOT analysis, Myo5 SH3) [2]: 158.4 BLU

LVGMRSFPLYPSGL
The normalized value in BLU units [3]: 385.7 BLU

RPPSHSAPYIPRSS
The normalized value in BLU units [4]: 47448.0 BLU

RAGNREPPSTPSTL
The normalized value in BLU units [3]: 273.8 BLU

CWHPKTIPKQPMEI
The normalized value in BLU units (SPOT analysis, Myo5 SH3) [1]: 342.9 BLU

QIVNKPLPPLPVAG
The normalized value in BLU units (SPOT analysis, Myo5 SH3) [1]: 248.9 BLU

EFDLKNIPMMPAGE
The normalized value in BLU units (SPOT analysis, Myo5 SH3) [1]: 106.1 BLU

TNSVKATPVPPTLA
The normalized value in BLU units [3]: 168.0 BLU

GKMVKWGPLRPFLS
The normalized value in BLU units (SPOT analysis, Myo5 SH3) [1]: 644.7 BLU

AKVNKCPPDHPYIQ
The normalized value in BLU units (SPOT analysis, Myo5 SH3) [1]: 164.3 BLU

MAEFRRVPLPPMAE
The normalized value in BLU units [4]: 442.6 BLU

SFDYLFHPFVPCTI
The normalized value in BLU units (SPOT analysis, Myo5 SH3) [2]: 23.1 BLU

PPSIRKQPIAPDVL
The normalized value in BLU units (SPOT analysis, Myo5 SH3) [1]: 150.3 BLU

QWSKRIMPYIPGPV
The normalized value in BLU units (SPOT analysis, Myo5 SH3) [1]: 295.5 BLU

RPQWLSYPEQPLNS
The normalized value in BLU units (SPOT analysis, Myo5 SH3) [2]: 241.0 BLU

SKYAKLDPSTPVSL
The normalized value in BLU units [4]: 457.3 BLU

VEMKRKKPVRPVDI
The normalized value in BLU units [3]: 472.2 BLU

KQAKRAPPSSPYVV
The normalized value in BLU units (SPOT analysis, Myo5 SH3) [1]: 295.0 BLU

GDHPKGPPPPPPPP
The normalized value in BLU units (SPOT analysis, Myo5 SH3) [1]: 20184.2 BLU

EHLQKERPKPPNKG
The normalized value in BLU units [3]: 363.6 BLU

SPSTMDFPKLPSFQ
The normalized value in BLU units (SPOT analysis, Myo5 SH3) [2]: 466.9 BLU

GETQWRIPYLPLDP
The normalized value in BLU units (SPOT analysis, Myo5 SH3) [2]: 106.2 BLU

SLLIHSLPRKPLLM
The normalized value in BLU units (SPOT analysis, Myo5 SH3) [2]: 314.4 BLU

ITSIRGSPSLPKNK
The normalized value in BLU units (SPOT analysis, Myo5 SH3) [1]: 370.3 BLU

ALEERFDPKSPTKR
The normalized value in BLU units (SPOT analysis, Myo5 SH3) [1]: 108.5 BLU

AGHIKTHPNSPTPG
The normalized value in BLU units [4]: 60.3 BLU

LFGIRNNPFIPITG
The normalized value in BLU units [3]: 169.8 BLU

KVQIKKVPTDPSSS
The normalized value in BLU units [3]: 191.2 BLU

SETSHHSPSAPFQR
The normalized value in BLU units (SPOT analysis, Myo5 SH3) [2]: 257.2 BLU

NELIKQGPKRPTSA
The normalized value in BLU units (SPOT analysis, Myo5 SH3) [1]: 175.5 BLU

RTPSKPDPMEPENT
The normalized value in BLU units [3]: 186.9 BLU

FEMVFRHPEQPHMI
The normalized value in BLU units [4]: 309.9 BLU

NALKLIHPFMPFIS
The normalized value in BLU units [4]: 170.3 BLU

FVFFKSLPDLPKPQ
The normalized value in BLU units (SPOT analysis, Myo5 SH3) [1]: 859.9 BLU

SPKPFSKPQEPVKA
The normalized value in BLU units (SPOT analysis, Myo5 SH3) [2]: 359.1 BLU

TASQLQNPPPPPST
The normalized value in BLU units [4]: 168.2 BLU

KSLQKFEPRYPKTA
The normalized value in BLU units [3]: 244.9 BLU

LWILYMSPDVPSAS
The normalized value in BLU units (SPOT analysis, Myo5 SH3) [2]: 252.6 BLU

REDAHEDPVSPKAG
The normalized value in BLU units [4]: 144.8 BLU

PPLDFEQPRLPSTA
The normalized value in BLU units (SPOT analysis, Myo5 SH3) [2]: 192.3 BLU

SQKKKALPKQPKAS
The normalized value in BLU units [3]: 492.9 BLU

INNNKMRPHLPPLS
The normalized value in BLU units [3]: 1004.0 BLU

PKHIRNEPVKPFRN
The normalized value in BLU units (SPOT analysis, Myo5 SH3) [1]: 360.9 BLU

ELYYLNDPKYPGTK
The normalized value in BLU units [4]: 0.0 BLU

MLFSWPYPEAPIEG
The normalized value in BLU units (SPOT analysis, Myo5 SH3) [2]: 126.4 BLU

SSKIRPTPRKPSRM
The normalized value in BLU units (SPOT analysis, Myo5 SH3) [1]: 673.3 BLU

GPLLLTVPELPEAD
The normalized value in BLU units [4]: 162.3 BLU

GLVLRSTPVIPDMK
The normalized value in BLU units [4]: 209.2 BLU

NAPERAVPILPPRN
The normalized value in BLU units [4]: 740.9 BLU

FENLLMEPNLPFFT
The normalized value in BLU units (SPOT analysis, Myo5 SH3) [2]: 202.2 BLU

TPPPPPLPSVLSS
The normalized value in BLU units (SPOT analysis, Myo5 SH3) [2]: 25804 BLU

SANNYPFPQQPNGM
The normalized value in BLU units [4]: 79.6 BLU

NRANKYDPKGPIYN
The normalized value in BLU units [3]: 205.0 BLU

TIEARVHPEPPNKP
The normalized value in BLU units [4]: 374.9 BLU

VAWCHDSPKPPSDR
The normalized value in BLU units [4]: 30.6 BLU

SPLSWSGPLTPPTF
The normalized value in BLU units [4]: 168.0 BLU

HILEKYSPFDPCGR
The normalized value in BLU units [3]: 166.2 BLU

MLFMKGSPSEPKCG
The normalized value in BLU units (SPOT analysis, Myo5 SH3) [1]: 250.7 BLU

VPGEHFAPMGPNGQ
The normalized value in BLU units [4]: 64.7 BLU

GSQWKNHPDWPFWV
The normalized value in BLU units [3]: 108.4 BLU

MQSKKEDPNRPKNL
The normalized value in BLU units [3]: 153.6 BLU

VLLPLRLPEIPPKG
The normalized value in BLU units [4]: 1072.4 BLU

LDTHKESPLRPKVR
The normalized value in BLU units [3]: 199.3 BLU

VSKAKLQPAKPQFT
The normalized value in BLU units [3]: 252.3 BLU

TLATLTEPKLPKSY
The normalized value in BLU units [4]: 18.0 BLU

KPAVLHYPPIPASA
The normalized value in BLU units (SPOT analysis, Myo5 SH3) [2]: 183.1 BLU

LIDFKDYPDVPKVP
The normalized value in BLU units (SPOT analysis, Myo5 SH3) [1]: 153.6 BLU

IESLREIPYGPDFD
The normalized value in BLU units (SPOT analysis, Myo5 SH3) [1]: 115.6 BLU

SEMHRAAPETPRSI
The normalized value in BLU units (SPOT analysis, Myo5 SH3) [1]: 322.4 BLU

SLVKFSCPMTPLLE
The normalized value in BLU units [4]: 248.6 BLU

AALVKFVPSKPMCV
The normalized value in BLU units [3]: 280.9 BLU

KFDAKGRPIPPHPD
The normalized value in BLU units [3]: 53.5 BLU

NPIPKSVPLHPKSG
The normalized value in BLU units [3]: 363.8 BLU

KLWDLSKPSKPLKE
The normalized value in BLU units (SPOT analysis, Myo5 SH3) [2]: 233.1 BLU

KKHDKLYPKYPSVK
The normalized value in BLU units (SPOT analysis, Myo5 SH3) [1]: 339.6 BLU

SLISMETPEQPHQQ
The normalized value in BLU units (SPOT analysis, Myo5 SH3) [2]: 146.8 BLU

HFLAYTNPRAPGKL
The normalized value in BLU units (SPOT analysis, Myo5 SH3) [2]: 111.7 BLU

NAPPRIFPKAPIYG
The normalized value in BLU units [3]: 168.1 BLU

KSYRKADPTNPQGW
The normalized value in BLU units [4]: 103.0 BLU

LVPSKAIPPLPQLD
The normalized value in BLU units [4]: 558.2 BLU

LAYERPLPDLPSTI
The normalized value in BLU units (SPOT analysis, Myo5 SH3) [1]: 131.9 BLU

RHSKKPAPPPPGMQ
The normalized value in BLU units (SPOT analysis, Myo5 SH3) [1]: 1938.6 BLU

VFVEKSKPTYPGTE
The normalized value in BLU units (SPOT analysis, Myo5 SH3) [1]: 96.4 BLU

PSSKKNKPNPPPGS
The normalized value in BLU units (SPOT analysis, Myo5 SH3) [1]: 106.9 BLU

FASEKGAPFFPNKT
The normalized value in BLU units (SPOT analysis, Myo5 SH3) [1]: 358.8 BLU
